Results taken from ChEMBL document CHEMBL5338814, “Discovery of Small-Molecule Degraders for Alpha-Synuclein Aggregates” (J Med Chem, 2023).
Activity calls are given as the source filed them. No cut-off for these calls is given here.

How the values were obtained:
[1] = target: T1, Protein cereblon/Alpha-synuclein (Homo sapiens) (UniProt P37840+Q96SW2); assay: PROTAC activity at CRBN/recombinant alpha-synuclein preformed fibrils seeded in HEK293T cells assessed as decrease in alpha-synuclein aggregates at 5 to 20 uM measured after 48 hrs by immunoblot analysis; format: cell-based; settings: dose 5-20 µM
[2] = target: von Hippel-Lindau disease tumor suppressor/Alpha-synuclein (Homo sapiens) (UniProt P37840+P40337); assay: PROTAC activity at VHL/recombinant alpha-synuclein preformed fibrils seeded in HEK293T cells assessed as decrease in alpha-synuclein aggregates upto 40 uM measured after 48 hrs by immunoblot analysis; format: cell-based
[3] = target: T1, Protein cereblon/Alpha-synuclein (Homo sapiens); assay: PROTAC activity at CRBN/recombinant alpha-synuclein preformed fibrils seeded in HEK293T cells assessed as decrease in alpha-synuclein aggregates upto 40 uM measured after 48 hrs by immunoblot analysis; format: cell-based
[4] = target: Baculoviral IAP repeat-containing protein 2/Alpha-synuclein (Homo sapiens) (UniProt Q13490+P37840); assay: PROTAC activity at cIAP1/recombinant alpha-synuclein preformed fibrils seeded in HEK293T cells assessed as decrease in alpha-synuclein aggregates upto 40 uM measured after 48 hrs by immunoblot analysis; format: cell-based
HEK-293T [5] = assay: Downregulation of alpha-synuclein in HEK293T cells seeded with recombinant alpha-synuclein preformed fibrils at 10 uM incubated for 24 hrs by label free quantification based proteomics analysis; format: functional, cell-based; settings: Homo sapiens
HEK-293T [6] = assay: Activation of autophagy-lysosome pathway in HEK293T cells seeded with recombinant alpha-synuclein preformed fibrils assessed as decrease in p62 level at 10 uM incubated for 6 hrs by immunoblot analysis; format: functional, cell-based; settings: Homo sapiens
[7] = 1-Octanol-water partition coefficient, logP of the compound incubated for 24 hrs by HPLC analysis; format: physicochemical
HEK-293T [8] = assay: Activation of autophagy-lysosome pathway in HEK293T cells seeded with recombinant alpha-synuclein preformed fibrils harboring adenovirus-mCherry-GFP-LC3B assessed as increase in GFP(-) punctae ratio at 10 uM treated for 6 hrs by DAPI staining based confocal laser scanning microscopic analysis; format: functional, cell-based; settings: Homo sapiens
HEK-293T [9] = assay: Effect on alpha-synuclein total level in HEK293T cells upto 40 uM measured after 48 hrs by immunoblot analysis; format: functional, cell-based; settings: Homo sapiens
Caenorhabditis elegans [10] = assay: In vivo PROTAC activity at CRBN/Alpha-synuclein overexpressed in Caenorhabditis elegans NL5901 co-expressing YFP fusion protein assessed as reduction in alpha-synuclein-YFP level at 20 to 80 uM incubated for 48 hrs by confocal laser scanning microscopic analysis; format: functional, organism-based; settings: dose 20-80 µM
HEK-293T [11] = assay: Activation of autophagy-lysosome pathway in HEK293T cells seeded with recombinant alpha-synuclein preformed fibrils harboring adenovirus-mCherry-GFP-LC3B assessed as increase in LC3B punctae number at 10 uM treated for 6 hrs by DAPI staining based confocal laser scanning microscopic analysis; format: functional, cell-based; settings: Homo sapiens
SH-SY5Y [12] = assay: Neuroprotective activity against alpha-synuclein aggregate-induced cell injury in human SH-SY5Y cells over-expressing alpha-synuclein preformed fibrils assessed as decrease in LDH release at 10 uM by LDH assay; format: functional, cell-based
HEK-293T [13] = assay: Activation of autophagy-lysosome pathway in HEK293T cells seeded with recombinant alpha-synuclein preformed fibrils assessed as increase in LAMP1 expression at 10 uM incubated for 6 hrs by immunoblot analysis; format: functional, cell-based; settings: Homo sapiens
HEK-293T [14] = assay: Activation of autophagy-lysosome pathway in HEK293T cells seeded with recombinant alpha-synuclein preformed fibrils assessed as increase in lysosome generation at 10 uM incubated for 6 hrs by LyTR staining based confocal laser scanning microscopic analysis; format: functional, cell-based; settings: Homo sapiens
Caenorhabditis elegans [15] = assay: In vivo PROTAC activity at CRBN/Alpha-synuclein overexpressed in Caenorhabditis elegans NL5901 co-expressing YFP fusion protein assessed as induction of alpha-synuclein aggregate degradation incubated for 48 hrs by immunoblot analysis; format: functional, organism-based; settings: dose 20-80 µM
HEK-293T [16] = assay: Activation of autophagy-lysosome pathway in HEK293T cells seeded with recombinant alpha-synuclein preformed fibrils harboring adenovirus-mCherry-GFP-LC3B assessed as increase in LC3B punctae density at 10 uM treated for 6 hrs by DAPI staining based confocal laser scanning microscopic analysis; format: functional, cell-based; settings: Homo sapiens
SH-SY5Y [17] = assay: Neuroprotective activity against alpha-synuclein aggregate-induced cell death in human SH-SY5Y cells over-expressing alpha-synuclein preformed fibrils assessed as decrease in cell death at 10 uM by CCK8 assay; format: functional, cell-based
[18] = Drug uptake in HEK293T cell membrane at 10 uM measured at 5 to 360 min by confocal laser scanning microscopic analysis; format: ADME, cell membranes; settings: human, hek-293t, time 5-360 min
Caenorhabditis elegans [19] = assay: In vivo PROTAC activity at CRBN/Alpha-synuclein overexpressed in Caenorhabditis elegans NL5901 co-expressing YFP fusion protein assessed as induction of alpha-synuclein aggregate degradation incubated for 48 hrs by dot blot analysis; format: functional, organism-based; settings: dose 20-80 µM
HEK-293T [20] = assay: Activation of autophagy-lysosome pathway in HEK293T cells seeded with recombinant alpha-synuclein preformed fibrils assessed as increase in LC3B-II/I ratio at 10 uM incubated for 6 hrs by immunoblot analysis; format: functional, cell-based; settings: Homo sapiens
Caenorhabditis elegans [21] = assay: In vivo PROTAC activity at CRBN/Alpha-synuclein overexpressed in Caenorhabditis elegans NL5901 co-expressing YFP fusion protein assessed as reduction in alpha-synuclein-YFP MFI at 20 to 80 uM incubated for 48 hrs by confocal laser scanning microscopic analysis; format: functional, organism-based; settings: dose 20-80 µM
HEK-293T [22] = assay: Effect on alpha-synuclein total level in HEK293T cells seeded with recombinant alpha-synuclein preformed fibrils upto 40 uM measured after 48 hrs by immunoblot analysis; format: functional, cell-based; settings: Homo sapiens

In the case of `CN1C(=O)CCC(N2C(=O)c3cccc(NCCOCCOCCOCCNC(=O)CNc4cccc(-c5cc(-c6ccc7c(c6)OCO7)n[nH]5)c4)c3C2=O)C1=O` (stereo not given), the Activity [1] is reported as “inactive”.

In the case of `Cc1ncsc1-c1ccc([C@H](C)NC(=O)[C@@H]2C[C@@H](O)CN2C(=O)[C@@H](NC(=O)CCOCCOCCOCCNc2cccc(-c3cc(-c4ccc5c(c4)OCO5)n[nH]3)c2)C(C)(C)C)cc1`, the Activity [2] is reported as “Active”.

For `O=C(CNc1cccc(-c2cc(-c3ccc4c(c3)OCO4)n[nH]2)c1)NCCOCCOCCNc1cccc2c1C(=O)N(C1CCC(=O)NC1=O)C2=O` (stereo not given), the Activity [3] was “Active”.

With `CC(C)C[C@H](NC(=O)[C@@H](O)[C@H](N)Cc1ccccc1)C(=O)NCCOCCOCCNc1cccc(-c2cc(-c3ccc4c(c3)OCO4)n[nH]2)c1` the Activity [4] was “Active”.

With `CC(C)C[C@H](NC(=O)[C@@H](O)[C@H](N)Cc1ccccc1)C(=O)NCCOCCOCCOCCNc1cccc(-c2cc(-c3ccc4c(c3)OCO4)n[nH]2)c1` the Activity [4] was “Active”.

In the case of `O=C(CNc1cccc(-c2cc(-c3ccc4c(c3)OCO4)n[nH]2)c1)NCCOCCOCCOCCNc1cccc2c1C(=O)N(C1CCC(=O)NC1=O)C2=O` (stereo not given), the Activity (HEK-293T [5]) is reported as “Active”, the Activity (HEK-293T [6]) is reported as “Active” and the logP at 24 h [7] is reported as 2.04. For the same compound, the Activity (HEK-293T [8]) was “Active”, the Activity (HEK-293T [9]) was “inactive” and the Activity (Caenorhabditis elegans [10]) was “Active”. The Activity (HEK-293T [11]) was “Active”, the Activity (SH-SY5Y [12]) was “Active” and the Activity (HEK-293T [13]) was “Active”. The Activity (HEK-293T [14]) was “Active”, the Activity (Caenorhabditis elegans [15]) was “Dose-Dependent Effect” and the Activity (HEK-293T [16]) was “Active”. For the same compound, the Activity (SH-SY5Y [17]) was “Active”, the Drug uptake [18] was “Active” and the Activity (Caenorhabditis elegans [19]) was “Dose-Dependent Effect”. The Activity (HEK-293T [20]) was “Active”, the Activity (Caenorhabditis elegans [21]) was “Active” and the Activity (HEK-293T [22]) was “inactive”.

With `Nc1cccc(-c2cc(-c3ccc4c(c3)OCO4)n[nH]2)c1` the Activity [1] was “inactive”.

In the case of `Cc1ncsc1-c1ccc([C@H](C)NC(=O)[C@@H]2C[C@@H](O)CN2C(=O)[C@@H](NC(=O)CCOCCOCCNc2cccc(-c3cc(-c4ccc5c(c4)OCO5)n[nH]3)c2)C(C)(C)C)cc1`, the Activity [2] is reported as “Active”.
